Laboratory results: PubChem BioAssay AID1259411 (Chemical Carcinogenesis Research Information System (CCRIS), 2018)
The source made the active and inactive calls. The rule behind the calls is not given here.

System: rodent carcinogenicity bioassays, tumor incidence
Assay: CCRIS carcinogenicity studies
Settings: Dose: 0, Dose: 0
Summary of the method: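 NCI-built, expert-reviewed records of carcinogenicity and related test outcomes (mutagenicity, tumor promotion/inhibition) compiled from published and report sources, historical span 1985-2011, not updated.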

## CN(CCCC(=O)c1cccnc1)N=O
Species: HAMSTER, Strain/Sex: SYRIAN/FEMALE, Route: INTRATRACHEAL, 0.05, 5, 50 MG/KG ONCE ADMINISTERED TO MOTHERS ON DAY 15 OF GESTATION (STUDY DURATION: 59 WK), 0.05, 5, 50 MG/KG ONCE ADMINISTERED TO MOTHERS ON DAY 15 OF GESTATION (STUDY DURATION: 59 WK), Tumor Site: Type of Lesion: NASAL CAVITY: ADENOCARCINOMA, ADRENAL GLAND: TUMOR, PANCREAS: ADENOMA, Tumor Site: Type of Lesion: NASAL CAVITY: ADENOCARCINOMA, ADRENAL GLAND: TUMOR, PANCREAS: ADENOMA
  carcinogen call: active; positive
Species: HAMSTER, Strain/Sex: SYRIAN/FEMALE, Route: SUBCUTANEOUS, 1, 5, 10, 20 MG/KG ONCE ADMINISTERED TO MOTHERS ON DAY 15 OF GESTATION (STUDY DURATION: 59 WK), 1, 5, 10, 20 MG/KG ONCE ADMINISTERED TO MOTHERS ON DAY 15 OF GESTATION (STUDY DURATION: 59 WK), Tumor Site: Type of Lesion: NASAL CAVITY: ADENOCARCINOMA, ADRENAL GLAND: TUMOR
  carcinogen call: active; positive
Species: HAMSTER, Strain/Sex: SYRIAN/FEMALE, Route: TRANSPLACENTAL, 50 MG/KG IN DISTILLED WATER ADMINISTERED INTRATRACHEALLY TO MOTHERS ON DAY 15 OF GESTATION (STUDY DURATION: 48 WK), Tumor Site: Type of Lesion: ADRENAL GLAND: TUMOR, COLON: TUMOR, LYMPHOID TISSUE: LYMPHOMA, Tumor Site: Type of Lesion: ADRENAL GLAND: TUMOR, COLON: TUMOR, LYMPHOID TISSUE: LYMPHOMA
  carcinogen call: active; positive
Species: HAMSTER, Strain/Sex: SYRIAN/MALE, Route: INTRATRACHEAL, 0.05, 5, 50 MG/KG ONCE ADMINISTERED TO MOTHERS ON DAY 15 OF GESTATION (STUDY DURATION: 59 WK), 0.05, 5, 50 MG/KG ONCE ADMINISTERED TO MOTHERS ON DAY 15 OF GESTATION (STUDY DURATION: 59 WK), Tumor Site: Type of Lesion: NASAL CAVITY: ADENOCARCINOMA, ADRENAL GLAND: TUMOR
  carcinogen call: active; positive
Species: HAMSTER, Strain/Sex: SYRIAN/MALE, Route: SUBCUTANEOUS, 1, 5, 10, 20 MG/KG ONCE ADMINISTERED TO MOTHERS ON DAY 15 OF GESTATION (STUDY DURATION: 59 WK), 1, 5, 10, 20 MG/KG ONCE ADMINISTERED TO MOTHERS ON DAY 15 OF GESTATION (STUDY DURATION: 59 WK), Tumor Site: Type of Lesion: NASAL CAVITY: ADENOCARCINOMA, ADRENAL GLAND: TUMOR
  carcinogen call: active; positive
Species: HAMSTER, Strain/Sex: SYRIAN/MALE, Route: TRANSPLACENTAL, 50 MG/KG IN DISTILLED WATER ADMINISTERED INTRATRACHEALLY TO MOTHERS ON DAY 15 OF GESTATION (STUDY DURATION: 48 WK), Tumor Site: Type of Lesion: NASAL CAVITY: TUMOR
  carcinogen call: active; positive
Species: MOUSE, Strain/Sex: C3B6F1/FEMALE, Route: TRANSPLACENTAL, 100 MG/KG (0.5 MMOL) IN 0.9% STERILE SALINE ADMINISTERED INTRAPERITONEALLY ON DAYS 14, 16 AND 18 OF GESTATION (STUDY
  carcinogen call: inactive; negative
Species: MOUSE, Strain/Sex: C3B6F1/MALE, Route: TRANSPLACENTAL, 100 MG/KG (0.5 MMOL) IN 0.9% STERILE SALINE ADMINISTERED INTRAPERITONEALLY ON DAYS 14, 16 AND 18 OF GESTATION (STUDY, Tumor Site: Type of Lesion: LIVER: HEPATOCELLULAR ADENOMA OR CARCINOMA
  carcinogen call: active; positive
Species: MOUSE, Strain/Sex: C3H/HE/FEMALE, Route: INTRAPERITONEAL, 100 MG/KG (0.5 MMOL) IN 0.9% STERILE SALINE ONCE ON DAYS 14, 16 AND 18 OF PREGNANCY (STUDY DURATION: 24 WK), Tumor Site: Type of Lesion: LUNG: TUMOR
  carcinogen call: active; positive
Species: MOUSE, Strain/Sex: STRAIN-A/FEMALE, Route: GAVAGE, 1, 2, 3 UMOL IN 0.1 ML COTTONSEED OIL 1/WK FOR 8 WK (STUDY DURATION: 26 WK), 1, 2, 3 UMOL IN 0.1 ML COTTONSEED OIL 1/WK FOR 8 WK (STUDY DURATION: 26 WK), Tumor Site: Type of Lesion: LUNG: ADENOMA
  carcinogen call: active; positive
Species: MOUSE, Strain/Sex: STRAIN-A/FEMALE, Route: INTRAPERITONEAL, 1, 2, 3 UMOL IN 0.1 ML COTTONSEED OIL 1/WK FOR 8 WK (STUDY DURATION: 26 WK), 1, 2, 3 UMOL IN 0.1 ML COTTONSEED OIL 1/WK FOR 8 WK (STUDY DURATION: 26 WK), Tumor Site: Type of Lesion: LUNG: ADENOMA
  carcinogen call: active; positive
Species: MOUSE, Strain/Sex: STRAIN-A/FEMALE, Route: INTRAPERITONEAL, 5, 20 UMOL TOTAL DOSE ADMINISTERED IN SUBDOSES 3/WK FOR 7 WK (STUDY DURATION: 37 WK), 5, 20 UMOL TOTAL DOSE ADMINISTERED IN SUBDOSES 3/WK FOR 7 WK (STUDY DURATION: 37 WK), Tumor Site: Type of Lesion: LUNG: TUMOR
  carcinogen call: active; positive
Species: MOUSE, Strain/Sex: STRAIN-A/FEMALE, Route: INTRAPERITONEAL, 20 UMOL MOUSE (TOTAL DOSE) ADMINISTERED IN 0.1 ML SALINE 3/WK (TOTAL 20 INJECTIONS) (STUDY DURATION: 37 WK), Tumor Site: Type of Lesion: LUNG: ADENOCARCINOMA, ADENOMA
  carcinogen call: active; positive
Species: MOUSE, Strain/Sex: STRAIN-A/FEMALE, Route: TRANSPLACENTAL, 100 MG/KG (0.5 MMOL) IN 0.9% STERILE SALINE ADMINISTERED INTRAPERITONEALLY ON DAYS 14, 16 AND 18 OF GESTATION (STUDY, Tumor Site: Type of Lesion: LUNG: TUMOR
  carcinogen call: active; positive
Species: MOUSE, Strain/Sex: STRAIN-A/MALE, Route: TRANSPLACENTAL, 100 MG/KG (0.5 MMOL) IN 0.9% STERILE SALINE ADMINISTERED INTRAPERITONEALLY ON DAYS 14, 16 AND 18 OF GESTATION (STUDY
  carcinogen call: inactive; negative
Species: MOUSE, Strain/Sex: SWISS/FEMALE, Route: INTRAPERITONEAL, 50 MG/KG IN STERILE SALINE ADMINISTERED ON POSTNATAL D 1, 3, 5, 7 AND 10 (STUDY DURATION: 15 MO), Tumor Site: Type of Lesion: LIVER: HEPATOCELLULAR ADENOMA OR CARCINOMA, LUNG: TUMOR
  carcinogen call: active; positive
Species: MOUSE, Strain/Sex: SWISS/FEMALE, Route: TRANSPLACENTAL, 100 MG/KG (0.5 MMOL) IN 0.9% STERILE SALINE ADMINISTERED INTRAPERITONEALLY ON DAYS 15, 17 AND 19 OF GESTATION (STUDY
  carcinogen call: inactive; negative
Species: MOUSE, Strain/Sex: SWISS/MALE, Route: INTRAPERITONEAL, 50 MG/KG IN STERILE SALINE ADMINISTERED ON POSTNATAL D 1, 3, 5, 7 AND 10 (STUDY DURATION: 15 MO), Tumor Site: Type of Lesion: LIVER: HEPATOCELLULAR ADENOMA OR CARCINOMA, LUNG: TUMOR
  carcinogen call: active; positive
Species: MOUSE, Strain/Sex: SWISS/MALE, Route: TRANSPLACENTAL, 100 MG/KG (0.5 MMOL) IN 0.9% STERILE SALINE ADMINISTERED INTRAPERITONEALLY ON DAYS 15, 17 AND 19 OF GESTATION (STUDY
  carcinogen call: inactive; negative
Species: RAT, Strain/Sex: F344/FEMALE, Route: GAVAGE, 11 MG/WK FOR A TOTAL DOSE OF 1.3 MMOL (STUDY DYRATION: 50 WK), Tumor Site: Type of Lesion: LIVER: TUMOR, LUNG: TUMOR, NASAL MUCOSA: TUMOR, Tumor Site: Type of Lesion: LIVER: TUMOR, LUNG: TUMOR, NASAL MUCOSA: TUMOR
  carcinogen call: active; positive
Species: RAT, Strain/Sex: F344/FEMALE, Route: INTRAVESICULAR, 5.5 MG IN 0.2 ML ETHANOL: DEIONIZED WATER (1:3) 2/WK FOR 30 WK (TOTAL DOSE 1.5 MMOL) (STUDY DURATION: LIFESPAN), Tumor Site: Type of Lesion: LUNG: TUMOR, LIVER: TUMOR
  carcinogen call: active; positive
Species: RAT, Strain/Sex: F344/FEMALE, Route: SUBCUTANEOUS, 1, 3, 9 MMOL/KG BW (TOTAL DOSE) WITH SUBDOSES GIVEN 3/WK FOR 20 WK WITH A 2 WK INTERRUPTION AFTER 7 WK (STUDY DURATIO, 1, 3, 9 MMOL/KG BW (TOTAL DOSE) WITH SUBDOSES GIVEN 3/WK FOR 20 WK WITH A 2 WK INTERRUPTION AFTER 7 WK (STUDY DURATIO, Tumor Site: Type of Lesion: NASAL CAVITY: TUMORS, LUNG: TUMORS, LIVER: TUMORS, Tumor Site: Type of Lesion: NASAL CAVITY: TUMORS, LUNG: TUMORS, LIVER: TUMORS
  carcinogen call: active; positive
Species: RAT, Strain/Sex: F344/MALE, Route: MUCOUS MEMBRANE, 0.3 ML OF A 15 MMOL WATER SOLUTION 1/D 3 D/WK FOR 1 WK THEN 1/D 5 D/WK FOR WK 2-4 THEN 2/D 5 D/WK FOR WK 5-61 (STUDY, Tumor Site: Type of Lesion: LUNG: ADENOSQUAMOUS CARCINOMA, ADENOCARCINOMA, ADENOMA, NASAL CAVITY: CARCINOMA, PAPILLOMA, ADENOMA, ORAL CAVITY: PAPILL, Tumor Site: Type of Lesion: LUNG: ADENOSQUAMOUS CARCINOMA, ADENOCARCINOMA, ADENOMA, NASAL CAVITY: CARCINOMA, PAPILLOMA, ADENOMA, ORAL CAVITY: PAPILL
  carcinogen call: active; positive
Species: RAT, Strain/Sex: F344/MALE, Route: ORAL, 0.5, 1, 5 PPM IN DRINKING WATER FOR DURATION OF STUDY (TOTAL DOSE: 0; 0.073; 0.17; 0.68 MMOL/KG) (STUDY DURATION: 128, 0.5, 1, 5 PPM IN DRINKING WATER FOR DURATION OF STUDY (TOTAL DOSE: 0; 0.073; 0.17; 0.68 MMOL/KG) (STUDY DURATION: 128, Tumor Site: Type of Lesion: NASAL CAVITY: TUMOR, LIVER: ADENOMA, HEPATOMA, LUNG: ADENOMA, ADENOCARCINOMA, ADENOSQUAMOUS CARCINOMA, SQUAMOUS CELL CAR, Tumor Site: Type of Lesion: NASAL CAVITY: TUMOR, LIVER: ADENOMA, HEPATOMA, LUNG: ADENOMA, ADENOCARCINOMA, ADENOSQUAMOUS CARCINOMA, SQUAMOUS CELL CAR
  carcinogen call: active; positive
Species: RAT, Strain/Sex: F344/MALE, Route: SUBCUTANEOUS, 1, 3, 9 MMOL/KG BW (TOTAL DOSE) WITH SUBDOSES GIVEN 3/WK FOR 20 WK WITH A 2 WK INTERRUPTION AFTER 7 WK (STUDY DURATIO, 1, 3, 9 MMOL/KG BW (TOTAL DOSE) WITH SUBDOSES GIVEN 3/WK FOR 20 WK WITH A 2 WK INTERRUPTION AFTER 7 WK (STUDY DURATIO, Tumor Site: Type of Lesion: NASAL CAVITY: TUMORS, LUNG: TUMORS, LIVER: TUMORS, Tumor Site: Type of Lesion: NASAL CAVITY: TUMORS, LUNG: TUMORS, LIVER: TUMORS
  carcinogen call: active; positive
